Values quoted from earlier work, collected in patent US7655374B2, “Fixing liquid, toner fixing method and apparatus, and image forming method and apparatus” (Ricoh Company, Ltd., priority 2005, dated 2010).

Details: acute oral toxicity; species not given

| Compound | LD50 |
| --- | --- |
| diethoxyethyl sebacate | > 5000 mg/kg |
| CCCCCCCCCCCC [n-dodecane] | > 5000 mg/kg |
| CCCCOC(=O)CCCCCCCCC(=O)OCCCC [dibutyl sebacate] | 14900 mg/kg |
| CCCCCCCCCCCC(=O)OCC [ethyl laurate] | 3000 mg/kg |
| CC(C)COC(=O)CCCCC(=O)OCC(C)C [diisobutyl adipate] | 12300 mg/kg |
